Here are results for four molecules from US20120115912A1, “RXR AGONIST COMPOUNDS AND METHODS” (priority 2009, published 2012).

SMILES strings stand for the structures. Read-outs that look alike come from different tables or passages of the source.

One series has as its system primary microglia. Nature of the series: Proteolytic degradation of Aβ by primary microglia. It is filed as cell-based, murine. The settings on record: for intracellular Aβ levels: 24 hours drug then 18 hours with 2 μg/mL soluble Aβ. From the text:
FIG. 5 illustrates graphs showing RXR agonists stimulate Aβ degradation.
Given the ability of RXR activation to drive LXR target gene expression, we predicted that agonist treatment should promote the proteolytic degradation of Aβ by microglia. […] Aβ uptake was unaffected by either drug treatment.

A further series has as its system microglia. Nature of the series: RXR mediated intracellular Aβ degradation with PPARγ or LXR inhibitors, microglia. It is filed as cell-based. The settings on record: inhibitor pretreatment 1.5 hrs, Bexarotene 24 hours, 18 hours 2 ug/mL soluble Aβ. The source says:
(§1) FIG. 14 illustrates graphs showing RXR mediated intracellular Aβ degradation is prevented by inhibiting PPARγ or LXR.
(§2) To determine which heterodimer partners are involved in RXR activation driven Aβ intracellular degradation, we inhibited PPARγ and LXR by competitive inhibitors, TO and 22-s-Hydroxycholesterol, respectively. Aβ degradation mediated by either microglia (A) or astrocytes (B) is inhibited with either inhibitor to PPAR or LXR. Additionally, a co-treatment with both inhibitors reduces Aβ degradation further (FIG. 14).

For a further series, the system named is astrocytes. The series can be described thus: RXR mediated intracellular Aβ degradation with PPARγ or LXR inhibitors, astrocytes. The format is cell-based. As to conditions: inhibitor pretreatment 1.5 hrs, Bexarotene 24 hours, 18 hours 2 ug/mL soluble Aβ.
Text: as §1, §2

Another series concerns ApoE. Nature of the series: ApoE lipidation status in astrocyte conditioned media (native gel electrophoresis, Western). It is filed as cell-based. As to conditions: confluent primary murine astrocytes, increasing doses, 48 hours. The source says: FIG. 4 illustrates an immunoassay showing ApoE lipidation status is increased after RXR agonist treatment. […] Conditioned media was subjected to native gel electrophoresis followed by Western analysis for ApoE.
Astrocyte conditioned media was collected and assessed by native gel electrophoresis. […]. (FIG. 4).

The test system of another series is primary astrocytes. The series can be described thus: Proteolytic degradation of Aβ by primary astrocytes. The format is cell-based, murine. The source says: FIG. 12 illustrates a graph showing RXR agonist stimulate Aβ degradation in astrocytes.
As shown above, astrocytes can drive the expression of LXR target genes after RXR activation, we predicted that agonist treatment should also promote the intracellular degradation of Aβ by astrocytes. […]. Aβ uptake was not affected by drug treatments (data not shown).

In the next series the test system is ApoE knock out microglia. Nature of the series: Intracellular Aβ degradation in ApoE knock out microglia. It is filed as cell-based, murine.
Series [1] deals with ApoE knock out astrocytes. The series can be described thus: Intracellular Aβ degradation in ApoE knock out astrocytes. The format is cell-based, murine.
The subject of series [2] is LXR target genes, ABCA1 and ABCG1. The settings on record: murine model of mixed dyslipidemis; cited from earlier work.
The conditions of series [3]: humans, extended periods of use; cited from earlier work.
A further series deals with AD animal model. Nature of the series: Contextual fear conditioning in AD animal model. As to conditions: 6 month old AD model mice, 100 mg/kg/day oral gavage, 7 days.
Another series has as its system CD36. Nature of the series: Expression of PPARγ target gene CD36 in primary astrocytes (qRT-PCR). The settings on record: confluent primary murine astrocytes, 10 nM, time course. A general note: Real-time PCR tracks product formation cycle by cycle.
Series [4] deals with LXR target genes (ABCA1, ABCG1, ApoE). The series can be described thus: RXR activation drives LXR target gene expression in primary astrocytes (Western analysis). The settings on record: primary murine astrocytes, increasing doses, 24 hours.
Text: Cell lysates were subjected to Western analysis for ABCA1, ABCG1 and ApoE. Actin served as a load control.
The test system is the same in series [5]. The settings on record: primary murine microglia, increasing doses, 24 hours.
Text: Cell lysates were subjected to Western analysis for ABCA1, ABCG1, ApoE, and GAPDH as a loading control.
The conditions of series [6]: therapeutic doses, FDA alert issued on May 21, 2007; cited from earlier work.

Description for AD animal model: Wildtype littermates were used as a control and were orally gavaged with water for 7 days (n=5). Following treatment, animals underwent contextual fear conditioning. The number of times the animals froze over a two minute period was assessed after training.
Text for CD36: Cell lysates were subjected to quantitative RT-PCR. GAPDH served as a control.

`CC1=C(/C=C/C(C)=C\C=C\C(C)=C\C(=O)O)C(C)(C)CCC1` [9cisRA]: in the series on primary microglia, the Aβ uptake result was “unaffected” and the “intracellular Aβ levels” value is on record as “dose-dependent reduction”.

For the molecule `CC(C)CC[C@H](O)[C@@H](C)[C@H]1CC[C@H]2[C@@H]3CC=C4C[C@@H](O)CC[C@]4(C)[C@H]3CC[C@]12C` [22-s-Hydroxycholesterol], the “Bexarotene-driven Aβ degradation in presence of inhibitor” value in the series with microglia and in the series on astrocytes was “inhibited” each time.

As to `C=C(c1ccc(C(=O)O)cc1)c1cc2c(cc1C)C(C)(C)CCC2(C)C` [Bexarotene], the “lipidation status of ApoE” value with ApoE is “increases the lipidation status of ApoE”. Besides, the Aβ uptake result in the series with primary microglia is reported as “unaffected”; in the series on primary astrocytes (data not shown), “not affected”. Moreover, the “intracellular Aβ levels” value in the series on primary microglia was “dose-dependent reduction”; in the series on primary astrocytes (24 hours drug then 18 hours with 2 ug/mL soluble Aβ) it was “dose dependent reduction”. Further, the “intracellular Aβ degradation” value in the series with ApoE knock out microglia (with exogenous 1 μg/mL ApoE) is “the effect of intracellular Aβ degradation returns”; in the series on ApoE knock out microglia (without ApoE), “no effect”; in series [1] (with exogenous 1 μg/mL ApoE) it was “the effect of intracellular Aβ degradation returns”; in series [1] (without ApoE) it was “no effect”. In addition, in series [2], the “expression of the LXR target genes, ABCA1 and ABCG1” value is “induce the expression of the LXR target genes, ABCA1 and ABCG1”. Also, in series [3], the clinical safety profile entry is listed as “good safety profile”. In the series on AD animal model, the “contextual fear conditioning behavior” value was “significantly improves behavior”. The “CD36 expression by qRT-PCR” value with CD36 is given as “drives CD36, a PPARγ regulated gene, expression”. Also, the “expression of ABCA1, ABCG1, and ApoE” value in [4] was “drives the expression of ABCA1, ABCG1 and ApoE”; in [5], “drives the expression of ABCA1, ABCG1, and ApoE”.

Take `CN(CCOc1ccc(CC2SC(=O)NC2=O)cc1)c1ccccn1` (centres unmarked) [rosiglitazone, 5-[4-[2-(N-methyl-N-(2-pyridyl)amino]ethoxy]benzyl]thiazolidine-2,4-dione]: in series [6], the “risk of heart attack” value is reported as “significantly increased risk of heart attack”.
